The text below walks through data of patent US7282150B2, “Method of extracting and method of purifying an effective substance” (Ezaki Glico Co., Ltd., priority 2001, dated 2007).

A short description of series [1]: Acetone extraction of hesperidin from orange juice concentrate with sodium chloride (HPLC). It is filed as physicochemical. To be noted: single extraction, orange juice five-fold concentrate + equal volume 15% sodium chloride solution. Here is the method:
10 ml of 15% sodium chloride solution was added to 10 ml of California orange juice concentrate (five-fold concentrate), and stirred to homogeneity, thereby obtaining an aqueous solution. The amount of hesperidin in the California orange juice concentrate used was measured by HPLC using a column ODS, where the mobile phase was a mixture of acetonitrile and water at 20:80, the flow rate was 0.5 ml/min, and the column temperature was 40° C. The absorbance of the eluate was detected at 280 nm. A specific method of detecting the amount of hesperidin is described in Japanese Laid-Open Publication No. 8-80177. […] Thereafter, the mixture was allowed to stand for 30 minutes. […] The upper phase (polar organic solvent phase) was recovered, and the volume thereof was measured. The amount of hesperidin was measured by HPLC as described above. As a result, by a single extraction operation, 75% of hesperidin was extracted in the acetone phase.

The conditions of series [2]: cited from earlier work.

With `COc1ccc([C@@H]2CC(=O)c3c(O)cc(O[C@@H]4O[C@H](CO[C@@H]5O[C@@H](C)[C@H](O)[C@@H](O)[C@H]5O)[C@@H](O)[C@H](O)[C@H]4O)cc3O2)cc1O` [hesperidin], the “hesperidin extracted in the acetone phase” value in series [1] came to 75%. In series [2] (acetone), the solubility in acetone result is reported as “insoluble in acetone”. Moreover, the solubility in water result in series [2] (water) was “poorly soluble in water”.
